Results from patent US20020098509A1, “Method for the quantitative determination of reversible acting inhibitors of the oxidoreductases” (priority 1995, published 2002).
Where two headings read alike, the source gives them in different places.

What was measured:
[1] = system: sarcosine oxidase; test: Stirred vessel system, initial gradient of oxygen or hydrogen peroxide signal; assay type: biochemical; details: for effect of substrate concentration on inhibition of the sarcosine oxidase, FIG. 16: 0.1 g/l sarcosine compared to 1.0 g/l sarcosine
Text: In contrast to the FIA system the stirred vessel system is a discontinuous process. In order to perform a measurement all necessary reaction partners are brought into the reaction chamber of the stirred vessel system and the course of reaction is been monitored by the appropriate detectors during a fixed time period. Afterwards the whole reaction mixture is removed. Then a new measurement can be done.
The reaction mixture of the stirred vessel system in FIG. 11 consists of the sample, substrate, buffer solution and enzyme. Here, the sample and the enzyme are added one after another and the sample itself containing the analyte, acetic acid for instance, in different concentrations. […] The result of the measurement is calculated from the initial gradient of the signal.
During the calibration via the initial gradient samples of different analyte concentration are added and the relating initial inclines are drawn into the chart in dependence of the analyte concentration (see FIGS. 12, 13 and 14). The sample containing the unknown analyte concentration is added to the reaction mixture in the same manner and is determined by using the initial incline which is compared to the calibration curve.

[2] = system: sarcosine oxidase; details: for inhibition of the sarcosine oxidase activity, FIG. 10: sarcosine oxidase 100 U
Text: In FIA systems an injected volume of the sample is transported to the detector by a continuous moving, not segmented carrier or transport flow via a mixing and reaction line. Meanwhile, the injected sample zone is broadened (dispersion) and reacts with the ingredients of the carrier flow. As a result of the chemical conversion, the changes in concentration of the participating components lead to a change of signal at the detector, which is characteristic for the concentration of the determined substance of the injected sample. In FIG. 1 the analyte (acetic acid) as well as the substrate (sarcosine) are injected as a sample into the carrier flow consisting of the working buffer. The mixing and reacting line contains the immobilized enzyme sarcosine oxidase, which reacts with the analyte and the substrate of the sample. The decrease of oxygen or the production of hydrogene peroxide is measured by means of an oxygen or hydrogene peroxide electrode. A typical measuring signal is reproduced in FIG. 2. The peak high H or surface S is proportional to the concentration of the sample. When calibrating via the peak heights, samples of different analyte concentrations are injected and the resulting peak heights in dependence of their analyte concentrations are drawn into a chart (FIG. 3). The sample of unknown analyte concentration is injected in the same manner and can be determined via the peak height with the help of the calibration curve. In FIG. 4 the substrate is added to the buffer solution and calibration is done by injecting the analyte. Again the analysis of the unknown sample can be be done by using the calibration curve as described in FIG. 5.

effect of substrate concentration on inhibition of the sarcosine oxidase, FIG. 16 [1] | inhibition of the sarcosine oxidase activity, FIG. 10 ([2]; 0.25 g/l respectively 0.5 g/l sarcosine) | inhibition of the sarcosine oxidase activity, FIG. 10 ([2]; 1 g/l or 2 g/l sarcosine) | inhibitor strength (inhibition of the measuring system), FIG. 7 ([2]; substances arising in biotechnological media, maximum concentration 0.1 mol/l) | SMILES | amount of inhibition of the sarcosine oxidase (relative initial incline versus analyte concentration), FIG. 15 ([1]; comparison of analytes, acetate and propionate as reference curves)
substantial higher inhibition |  |  |  | CCC(=O)O [propionate] | 
substantial higher inhibition | a considerable amount of inhibition | only a small amount of inhibition | quite strong | CC(=O)O [acetate] | 

SMILES | effect of substrate concentration on inhibition of the sarcosine oxidase, FIG. 16 [1] | inhibition of the sarcosine oxidase activity, FIG. 10 ([2]; 0.25 g/l respectively 0.5 g/l sarcosine) | inhibition of the sarcosine oxidase activity, FIG. 10 ([2]; 1 g/l or 2 g/l sarcosine) | inhibitor strength (inhibition of the measuring system), FIG. 7 ([2]; substances arising in biotechnological media, maximum concentration 0.1 mol/l) | amount of inhibition of the sarcosine oxidase (relative initial incline versus analyte concentration), FIG. 15 ([1]; comparison of analytes, acetate and propionate as reference curves)
CC=O [acetaldehyde] | only slightly influenced |  |  |  | lower
